According to PMC4559766 (Scientific Reports, 2015):
“And” between values parts separate entries of the source, which are not always exact repeats. Equal entries are not always repeated.

Key:
Du145 transplanted tumor [1] = experiment: TEM of removed tumors, cells with typical apoptosis characteristic; assay type: in vivo, BALB/c-nu/nu nude mice; settings: TEM of tumors removed after 4 weeks of administration
Experimental: (§1) Four weeks after administration, the mice were executed, and the tumors of different groups were removed and fixed with 10% neutral formalin or 2.5% glutaraldehyde. The fixed tumor tissue slides were subjected to Hematoxylin-eosin (HE) staining, immunohistochemistry in which anti-CD31 antibody and biotin-labeled IgG were respectively used as the first and second antibody, and TEM analysis. The microvessel densitied (MVD) in different tumor tissues was calculated using the Weidner method.

[2] = tested on: human mammary non-tumorigenic epithelial cells MCF10A; experiment: Proliferation of non-tumorigenic epithelial cells MCF10A (Cell Counting Kit-8); assay type: cell-based; settings: 20–900 nM, 48 hours
Experimental: (§2) Du145, Raji, K562, Eca109, HeLa, MCF-7, MDA-MB-231 cells or non-tumorigenic epithelial cells MCF10A and HUVEC cells in logarithmic growth phase were respectively seeded into 96-well plates with the number of 8000 cells per well and incubated for 24 hours. […] The cells were counted with Cell Counting Kit-8. The IC50 was calculated using SPSS 17.0-Logit.

[3] = molecular target: T1, recombinant human TNFRII (hTNFRII) (Homo sapiens, UniProt P20333); experiment: SPR binding affinity to hTNFR II (BIAcore 3000); settings: SPR and ITC
T1 construct: purchased Sino Biological Inc
T1 sequence (P20333 23-257 limits assumed): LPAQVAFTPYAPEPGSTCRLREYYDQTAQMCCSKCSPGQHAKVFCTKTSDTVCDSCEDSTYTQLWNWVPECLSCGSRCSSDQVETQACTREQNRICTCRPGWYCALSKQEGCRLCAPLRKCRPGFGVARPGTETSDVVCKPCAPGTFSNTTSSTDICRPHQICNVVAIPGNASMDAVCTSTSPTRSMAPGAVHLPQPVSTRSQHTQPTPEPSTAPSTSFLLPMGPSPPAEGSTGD
Source text: (§3) BIAcore kinetic evaluation Ver. 4.1 software and Microcal ORIGIN Ver. 5.0 software were respectively used to determine the dissociation constant (KD).

Du145 cells [4] = experiment: Cell cycle of Du145 cells, PI single staining-flow cytometry; assay type: cell-based, human; settings: 20 nM, 48 hours
Experimental: (§4) Du145 cells in logarithmic growth phase were seeded into 6-well plates with number of 3 × 10^5 cells per well.

[5] = tested on: chick chorioallantoic membrane; experiment: Chick chorioallantoic membrane model of angiogenesis; assay type: in vivo; settings: 72 hours at 37 °C
Experimental: Thirty fertilized chick embryos were randomly divided into five groups and incubated in the thermostatic incubator at 37 °C for six days (blunt end up). Drill a small window about 1 cm × 1 cm on the eggshell on the gas chamber side of chick embryo, meanwhile, also drill a small hole at the gas chamber, so that an artificial gas chamber was formed at the window. After removing the shell and shell membrane, the chicken chorioallantoic membrane (CAM) was exposed. […] The window was sealed with transparent tape, and chick embryos were incubated at 37 °C for 72 hours in thermostatic incubator.

Factor Xa = experiment: In vitro factor Xa enzyme digestion half-life; assay type: in vitro ADME; settings: FXa 0.112 unit, 37 °C, 0-48 hours, HPLC-ESI-MS
Experimental: FXa (0.112 unit) were added into the mixture. After being thoroughly mixed, the mixture was divided into six aliquots to six PCR tubes and hydrolyzed at 37 °C in dark for 48 hours. Samples were respectively obtained at different time points (0, 12, 24, 36 and 48 hours) and each of samples was boiled for 5 minutes to quench the reaction and centrifuged.

Du145 transplanted tumor [6] = experiment: Microvessel density of removed tumors (anti-CD31 immunohistochemistry, Weidner method); assay type: in vivo, BALB/c-nu/nu nude mice; settings: tumors removed after 4 weeks of administration, anti-CD31, n = 6
Experimental: as §1

[7] = Pharmacokinetics in BALB/c mice after intravenous injection
Experimental: Blood samples were collected by eye bleed from three mice at per time point prior to dosing and from 0.5 to 24 hours postdosing, and the plasma portion was analyzed by using an electrospray ionization, LC/MS/MS method described previously[48]. […] Tri (2-carboxyethyl) phosphine hydrochloride (TCEP) was used as a reducing agent to enhance peptide recovery and was added to all samples at a final concentration of 2 mM. After removing the plasma proteins through adding acetonitrile and centrifugation, the supernatant was transferred to another 96-well plate. Samples were analyzed by LC/MS/MS. Pharmacokinetic parameters were fitted to a two-compartment elimination model, and drug exposure (AUC), elimination half-life (t1⁄2), volume of distribution (Vd) and the clearance (CL) were calculated using WinNonlin Ver.

[8] = molecular target: T2, human TNFRI of ML-la cells (Homo sapiens, UniProt P19438); experiment: Competition receptor binding assay, [125I]TNF α displacement from TNFRI; design: unit not given beside the values
T2 construct: ML-la cells (a human myelomonoblastic leukemia cell line, 1 × 10^6 cells/well) were preincubated with either anti-p60 antibody or anti-p80 antibody; endogenous in cells; host or cells: ML-la (ML-1a) human myelomonoblastic leukemia cells
T2 sequence (P19438 30-455): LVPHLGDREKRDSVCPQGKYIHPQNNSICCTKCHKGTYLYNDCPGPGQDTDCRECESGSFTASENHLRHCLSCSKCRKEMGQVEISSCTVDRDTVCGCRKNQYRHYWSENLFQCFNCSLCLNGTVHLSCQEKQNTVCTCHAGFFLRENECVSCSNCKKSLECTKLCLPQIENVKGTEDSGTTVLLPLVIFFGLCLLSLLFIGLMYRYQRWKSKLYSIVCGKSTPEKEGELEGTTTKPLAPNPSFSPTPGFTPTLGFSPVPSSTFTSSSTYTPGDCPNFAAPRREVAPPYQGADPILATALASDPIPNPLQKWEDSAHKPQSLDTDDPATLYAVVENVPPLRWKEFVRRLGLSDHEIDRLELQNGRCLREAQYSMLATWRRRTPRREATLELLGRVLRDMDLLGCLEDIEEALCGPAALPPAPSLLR
Experimental: Free iodine was removed by gel filtration on a G-25 column equilibrated with phosphate-buffered saline containing 0.1% gelatin. […] Thereafter cells were washed three times with 150 μl of ice-cold phosphate-buffered saline containing 0.1% bovine serum albumin. Then each well was cut from the plate with a scissors, and cell-bound radioactivity was determined by an Apec-Series […] (ICN Biomedicals, Inc., Costa Mesa, CA)[51].

[9] = Blood biochemical indexes of liver and kidney function in tumor-bearing nude mice; settings: serum at end of 4 weeks of administration, n = 6
Experimental: The blood was collected and centrifuged at the end of administration for 4 weeks. The serum was placed into eppendorf (EP) tube and immediately sent to the First Affiliated Hospital of Jinan University where several tests closely related to liver/kidney function were performed, and the blood biochemical indexes AST, ALT, AST/ALT, ALB, GLB, ALB/GLB, DBILI, IBILI, TBILI, BUN and CREA were obtained.

HUVEC cells = experiment: Proliferation inhibition of HUVEC cells (Cell Counting Kit-8); assay type: cell-based, human; settings: 20 nM, 48 hours
Experimental: as §2

[10] = molecular target: T3, recombinant human TNFRI (hTNFRI) (Homo sapiens, UniProt P19438); experiment: SPR binding affinity to hTNFR I (BIAcore 3000); settings: SPR and ITC
T3 construct: purchased Sino Biological Inc
T3 sequence (P19438 30-211 limits assumed): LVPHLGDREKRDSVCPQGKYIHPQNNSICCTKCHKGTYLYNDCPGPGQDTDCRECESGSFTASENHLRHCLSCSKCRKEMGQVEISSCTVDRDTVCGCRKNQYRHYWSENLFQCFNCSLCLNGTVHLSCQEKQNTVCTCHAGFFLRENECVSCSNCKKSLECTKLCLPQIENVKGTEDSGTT
Source text: as §3

Du145 cells [11] = experiment: Apoptosis of Du145 cells, Annexin V-FITC/PI double staining-flow cytometry; assay type: cell-based, human
Experimental: as §4

Du145 transplanted tumor [12] = experiment: Subcutaneous Du145 transplanted tumor in nude mice; assay type: in vivo, BALB/c-nu/nu nude mice; settings: tail vein once a day for 4 weeks; 0.1 ml of 40 nM RMP16 or P16, estramustine 60 mg/kg; by average tumor weight versus NaCl group; n = 6
Experimental: Thirty male 4-week-old BALB/c-nu/nu nude mice (17–19 g), were divided into five groups. CK group (blank control) was the mice which were not inoculated Du145 cells, and the remaining four groups received inoculation of Du145 cells. 0.2 ml of Du145 cells suspension with the concentration of 1.5 × 10^7 cells/ml was injected subcutaneously into the right side of back of nude mice. […] The weights and volumes of tumors in different groups were measured once every four days, and tumor growth curves for each group were plotted.

[13] = BALB/c, mouse, plasma, iv, 5 mg/kg

For `CC[C@H](C)[C@H](NC(=O)[C@H](CCCNC(=N)N)NC(=O)[C@H](CO)NC(=O)[C@@H](NC(=O)[C@@H](NC(=O)[C@H](Cc1c[nH]cn1)NC(=O)[C@@H](NC(=O)[C@H](CC(C)C)NC(=O)[C@H](CC(C)C)NC(=O)[C@H](CCCNC(=N)N)NC(=O)CNC(=O)[C@H](CCC(=O)O)NC(=O)[C@@H](NC(=O)[C@H](Cc1c[nH]c2ccccc12)NC(=O)[C@H](CO)NC(=O)[C@H](CO)NC(=O)[C@@H]1CCCN1C(=O)[C@H](CCCNC(=N)N)NC(=O)[C@H](CCC(N)=O)NC(=O)[C@H](Cc1c[nH]c2ccccc12)NC(=O)[C@@H](N)CCSC)[C@@H](C)CC)[C@@H](C)O)[C@@H](C)O)[C@@H](C)CC)C(=O)N[C@@H](C)C(=O)N[C@H](C(=O)N[C@@H](CO)C(=O)N[C@@H](Cc1ccc(O)cc1)C(=O)N[C@@H](CCC(N)=O)C(=O)N[C@H](C(=O)N[C@@H](CCCCN)C(=O)N[C@H](C(=O)N[C@@H](CC(N)=O)C(=O)N[C@@H](CC(C)C)C(=O)N[C@@H](CC(C)C)C(=O)O)C(C)C)[C@@H](C)O)C(C)C` [RMP16], the “percent of the tumor cells with typical apoptosis characteristic” value (Du145 transplanted tumor [1]) was “about 79.6%”, the “effect on proliferation of MCF10A cells” value [2] was “not significant effect” and the “bound less strongly to hTNFRII than did TNF α” value [3] was about 6600 times. For the same compound, the “increase of Du145 cells remaining in G0/G1 phase” value (Du145 cells [4]) was 13.1%, the “reduction of Du145 cells remaining in S phase and G2/M phase” value (Du145 cells [4]) was 12.9% and the “vessel branch points, dose of 2 μg” value ([5]; 2 μg on filter membrane, n = 6) was 28.02 ± 1.37. For the same compound, the “inhibition rate of angiogenesis, 2 μg” value ([5]; 2 μg on filter membrane, versus NaCl group) was 54.13 ± 5.13%, the “vessel branch points, dose of 4 μg” value ([5]; 4 μg on filter membrane, n = 6) was 12.31 ± 2.95 and the “inhibition rate of angiogenesis, 4 μg” value ([5]; 4 μg on filter membrane, versus NaCl group) was 79.94 ± 4.64%. The “factor Xa enzyme digestion half-life in the presence of HSA” value (Factor Xa; 10 μM peptide in PBS with 2 μM HSA) was 15.83 h, the half-life at 10 μM (Factor Xa; factor Xa (FXa) enzyme digestion in PBS without HSA, 10 μM peptide in PBS without HSA, read-out: factor Xa enzyme digestion half-life in the absence of HSA (converted)) was 9.72 h and the “microvessel density (MVD)” value (Du145 transplanted tumor [6]) was 6.4 ± 0.62. For the same compound, the AUC [7, 13] was 1360 µg·h/mL, the Vd [7, 13] was 0.0695 L/kg and the clearance [7, 13] was 3.68 mL/h/kg. The half-life [7, 13] was 13.1 h, the half-life in mice ([7]; in mice, as stated in abstract) was 13.11 h and the “IC50 of displacing [125I]TNF α from TNFRI as multiple of that from TNFRII” value [8] was 1/400. For the same compound, the ALB [9] was 17.2 ± 0.2 g/L, the ALT [9] was 100.5 ± 20.5 U/L and the AST [9] was 154 ± 28 U/L. For the same compound, the CREA [9] was 10.5 ± 0.5 µM, the DBILI [9] was 3 ± 0.7 µM and the GLB [9] was 41.7 ± 1 g/L. The IBILI [9] was 9.25 ± 0.55 µM, the TBILI [9] was 12.25 ± 0.15 µM and the “effect on proliferation of HUVEC” value (HUVEC cells) was “significantly inhibited the proliferation”. For the same compound, the “binding affinity for hTNFRI higher than that for hTNFRII” value [10] was about 410 times, the “bound less strongly to hTNFRI than did TNF α” value [10] was about 4.5 times and the “increase of apoptosis rate for Du145 cells” value (Du145 cells [11]; 20 nM, 48 h, Annexin V-FITC/PI flow cytometry, versus PBS) was 14.21%. The “cell pro-apoptotic effect after TNFRI blocking” value (Du145 cells [11]; Du145 cells pre-incubated with 100 nM H398 (TNFRI-selective inhibitor) for 30 minutes at 37 °C before 20 nM RMP16) was “disappeared” and the tumor inhibition rate (Du145 transplanted tumor [12]) was ~80% and 78.11%.
